This note sets out measurements from patent US5294725A, “Scopularin” (E. R. Squibb & Sons, Inc., priority 1989, dated 1994).

In brackets after ≈: the same amount, converted by molar mass.

Assay [1] has as its system Candida albicans. As to the kind of experiment: Agar dilution MIC assay. Type of assay: cell-based. Here is the method:
(§1) The following methodology was used to determine the miniumum inhibitory concentration (hereinafter referred to as MIC) of scopularin.
(§2) The aerobic test organisms were grown in approximately 15-20 ml of Antibiotic Assay Broth (Difco) by inoculating (in tubes) the broth with a loopful of the organism from a BHI (Difco) agar slant. The inoculated tubes were incubated at 37° C. for 18 to 24 hours. These cultures are assumed to contain 10^7 colony forming units (CFU) per ml and the cultures were diluted 1:100 to give a final inoculum level of 10^5 CFU dilutions were made with Yeast Beef Broth (Difco).
(§3) Scopularin was dissolved in an appropriate diluent at a concentration of 1,000 μg/ml. Two-fold dilutions were made in Yeast Beef Broth (Difco), resulting in a range from 1000 μg/ml to 0.5 μg/ml. 1.5 ml of each dilution was placed into individual petri dishes to which 13.5 ml of K-10 agar was added. The composition of K-10 agar is:
(§4) The final drug concentration in the agar ranged from 100 μg/ml to 0.05 μg/ml. Organism growth control plates containing agar only were prepared and inoculated before and after the test plates. The organisms were applied to the agar surface of each plate with a Denyl Multipoint Inoculator (which delivers approximately 0.001 ml of each organism) resulting in a final inoculum of 10^4 CFU on the agar surface.
(§5) The plates were incubated at 37° C. for 18 hours and the MICs determined. The MIC is the lowest concentration of compound inhibiting growth of the organism.
(In general: In agar dilution the substance is mixed into plates at graded concentrations.)

Assay [2] relates to Candida krusei. As to the kind of experiment: Agar dilution MIC assay. Type of assay: cell-based. Conditions: Pichia kudriavzevii, SC2967, 18 h. Here is the method: as §1, §2, §3, §4, §5
In assay [3] the target is T1, lanosterol demethylase (Candida albicans, UniProt P10613).
T1 construct: endogenous in cells; host or cells: Candida albicans SC5314
As to the kind of experiment: Radiolabeled metabolic assay of lanosterol demethylase inhibition (14C-acetate, lanosterol accumulation). Type of assay: cell-based. The following applies: Candida albicans SC5314, 1 hour, 30°, TLC autoradiography. Here is the method: (§6) The inhibition of lanosterol demethylase was determined by two methods: the spectrophotometric carbon monoxide binding assay of Omura and Sato (J. Biol. Chem. 239:2370-2378, 1964) and by a radiolabeled metabolic assay.
The ability of scopularin and its alcohol to inhibit the lanosterol demethylase of Candida albicans can also be visualized by a metabolic assay. Candida albicans SC5314, was grown overnight at 30° with shaking in the same medium as that used above. Cells were harvested by centrifugation and resuspended in water to give an optical density of 0.3 at 660 nm. 750 μl of this cell suspension, 300 μl of a medium containing 0.35 g Difco yeast nitrogen base without amino acids, 1 g glucose and distilled water to 10 ml, 100 μl of test material and distilled water were combined to give a final volume of 1.425 ml. This was incubated for 15 minutes at 30° C. with shaking, then 3 μCi ^14 C-acetate was added and continued to incubate for 1 hour. Cells were harvested by centrifugation and extracted with 2×0.5 ml methanol; centrifuged, decanted supernate and repeated the extraction with […] methanol-benzene (1:1). Centrifuged, decanted; combined supernates, dried and resuspended in 100 μl chloroform-methanol (1:1). The aliquots were spotted onto silica gel 60 (Merck) plates and developed chromatographically in a solvent containing dichloromethane-acetone (60:1). […]

In assay [4] the target is T1, lanosterol demethylase. Put plainly: Spectrophotometric carbon monoxide binding assay (Omura and Sato). Conditions: Candida albicans SGY677, read-out: 50% inhibition of carbon monoxide binding. The method, then: as §6
Cells of Candida albicans, SGY677, were grown overnight without shaking at 30° C. in a medium consisting of yeast extract 1% , peptone 2%, glucose 2% and distilled water. Cells were harvested by centrifugation and resuspended in 0.65M mannitol to an optical density at 600 nm of 2.5. At this density 1 ml of cells was equal to 6.7 mg constant dry weight (105° C. for 18 hours).

T1 sequence (P10613 whole entry): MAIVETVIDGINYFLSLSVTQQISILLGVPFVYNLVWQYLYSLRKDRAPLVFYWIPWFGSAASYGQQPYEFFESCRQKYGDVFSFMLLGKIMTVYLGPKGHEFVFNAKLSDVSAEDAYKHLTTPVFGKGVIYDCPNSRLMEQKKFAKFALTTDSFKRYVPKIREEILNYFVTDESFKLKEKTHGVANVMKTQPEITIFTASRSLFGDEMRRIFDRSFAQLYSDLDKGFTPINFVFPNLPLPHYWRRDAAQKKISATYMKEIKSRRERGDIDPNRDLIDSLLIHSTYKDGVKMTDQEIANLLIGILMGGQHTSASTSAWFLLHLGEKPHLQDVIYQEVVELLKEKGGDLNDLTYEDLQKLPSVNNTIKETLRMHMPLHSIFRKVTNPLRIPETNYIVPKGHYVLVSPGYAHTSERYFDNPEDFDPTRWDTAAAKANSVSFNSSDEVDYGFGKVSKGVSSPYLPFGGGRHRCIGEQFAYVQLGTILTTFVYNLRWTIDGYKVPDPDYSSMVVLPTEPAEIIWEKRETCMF

As for `CCC/C=C/C=C/C=C(\C)[C@H]1OC[C@@H](C)[C@@H](OC)[C@@H]1OC(=O)CN` (relative stereo) [Scopularin, (2α, 3β, 4α, 5α)-Tetrahydro-4-methoxy-5-methyl-2-(1-methyl-1,3,5-nonatrienyl)-2H-pyran-3-ol, amino-acetate ester], the MIC is 100 µg/mL (≈ 296 µM) in assay [1] (SC12, 18 h); 50 µg/mL (≈ 148 µM) in assay [1] (SC14, 18 h); 0.4 µg/mL (≈ 1.19 µM) in assay [2]. Also, in assay [3], the “concentration causing accumulation of lanosterol, consistent with inhibition of lanosterol demethylase” value worked out at 360 µM.

With `CCCC=CC=CC=C(C)[C@H]1OC[C@@H](C)[C@@H](OC)[C@@H]1O` (relative stereo) [alcohol], in assay [4], the IC50 came out at 14 µM. In addition, the “concentration causing accumulation of lanosterol, consistent with inhibition of lanosterol demethylase” value in assay [3] came to 14 µM.

As usually defined, the MIC is the lowest concentration that inhibits growth of the organism.
